From ChEMBL document CHEMBL1149476, “Structure-activity relationship study of 9-aminoacridine compounds in scrapie-infected neuroblastoma cells” (Bioorg Med Chem Lett, 2006)

Experiments:
[1] = test system: ScN2a; assay: Inhibition of PrPSc accumulation in mouse ScN2a cell line relative to control; type: functional, cell-based
[2] = test system: ScN2a; assay: Cytotoxicity against mouse ScN2a cell line relative to control; type: functional; conditions: read-out: LD50 (the source's name)
[3] = Therapeutic index, LD50 for ScN2a cells/EC50 for PrPSc accumulation in ScN2a cells; type: cell-based; conditions: mouse, read-out: Ratio LD50/EC50
[4] = test system: HEK293; assay: Cytotoxicity against HEK293 cells relative to control; type: functional; conditions: Homo sapiens, read-out: LD50 (the source's name)
[5] = test system: HepG2; assay: Cytotoxicity against HepG2 cells relative to control; type: functional; conditions: Homo sapiens, read-out: LD50 (the source's name)

Structure (SMILES) | EC50 [1] [nM] | CC50 [2] [µM] | selectivity ratio [3] | CC50 [4] [µM] | CC50 [5] [µM]
CCCN(CCC)CCCNc1c2ccc(Cl)cc2nc2ccc(OC)cc12 | 600 | 6.4 | 10.9 |  | 
CCCN(CC)CCCNc1c2ccc(OC)cc2nc2ccc(Cl)cc12 | 600 | 8.5 | 13.6 | 4.4 | 6.9
CCCN(CCC)CCCNc1c2ccc(OC)cc2nc2ccc(Cl)cc12 | 400 | 6 | 15.8 | 10.7 | 13.8
CCN(CC)CCCC(C)Nc1c2ccc(Cl)cc2nc2ccc(OC)cc12 (stereo unspecified) [QUINACRINE] | 500 | 9.6 |  | 7.6 | 7.9
CCN(CCCNc1c2ccc(OC)cc2nc2c(C)c(F)ccc12)CC(C)C |  | 0.6 |  | 0.7 | 0.6
CCCN(CCC)CCCNc1c2ccc(OC)cc2nc2ccc(C(F)(F)F)cc12 | 400 | 11.7 | 28.6 | 16.4 | 18.1
CCCN(CCC)CCCNc1c2ccc(OC)cc2nc2c(C)cccc12 | 1000 | 1.4 | 1.3 | 0.7 | 0.7
CCCN(CCCNc1c2ccc(OC)cc2nc2ccc(C(F)(F)F)cc12)Cc1ccccc1 | 7100 | 18.3 | 2.6 | 22.4 | > 25
CCCN(CC)CCCNc1c2ccc(OC)cc2nc2c(C)c(F)ccc12 |  | 0.6 |  | 0.8 | 0.7
CCN(CC)CCCC(C)Nc1c2ccc(OC)cc2nc2ccc(Cl)cc12 (stereo unspecified) | 700 | 17.4 | 23.3 |  | 
CCCN(CCCNc1c2ccc(OC)cc2nc2c(C)cccc12)CC(C)C | 1000 | 1.3 | 1.3 | 1.4 | 0.7
CCN(CCCNc1c2ccc(OC)cc2nc2ccc(C(F)(F)F)cc12)Cc1ccccc1O | 3900 | 13 | 2.6 | 23.1 | > 25
CCCN(CC)CCCNc1c2ccc(OC)cc2nc2ccc(C(F)(F)F)cc12 | 800 | 7.6 | 9.8 | 14.6 | 16.5
